The test system of this test is P388 leukemia ip, CD2F1 mice, survival T/C. Kind of test: NCI In Vivo Anticancer Drug Screen. Data for tumor model P388 Leukemia (intraperitoneal) in CD2F1 (CDF1) mice. The note with it: endpoint: median survival time, higher = longer survival. An outline of the steps: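 Mice carrying the transplanted tumor received test compound or vehicle. Survival was recorded in each group, and the value is the treated-group measurement divided by that of the vehicle-treated control group.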

Where [1] appears, read: dose: 50.0 mg/kg/injection, schedule: Q01DX009 (ip), vehicle: saline.
[2] abbreviates: dose: 100.0 mg/kg/injection, schedule: Q01DX009 (ip), vehicle: saline.
Setting [3] is: dose: 200.0 mg/kg/injection, schedule: Q01DX009 (ip), vehicle: saline.
[4] abbreviates: dose: 50.0 mg/kg/injection, schedule: Q01DX005 (ip), vehicle: saline with Tween-80.
The mark [5] stands for this setting: dose: 100.0 mg/kg/injection, schedule: Q01DX005 (ip), vehicle: saline with Tween-80.
[6] abbreviates: dose: 100.0 mg/kg/injection, schedule: Q04DX003 (ip), vehicle: saline.
Setting [7] is: dose: 200.0 mg/kg/injection, schedule: Q01DX005 (ip), vehicle: saline with Tween-80.
The mark [8] stands for this setting: dose: 100.0 mg/kg/injection, schedule: Q01DX009 (ip), vehicle: saline with Tween-80.
The mark [9] stands for this setting: dose: 200.0 mg/kg/injection, schedule: Q01DX009 (ip), vehicle: saline with Tween-80.
The mark [10] stands for this setting: dose: 50.0 mg/kg/injection, schedule: Q01DX005 (ip), vehicle: saline.
Setting [11] is: dose: 100.0 mg/kg/injection, schedule: Q01DX005 (ip), vehicle: saline.
Setting [12] is: dose: 200.0 mg/kg/injection, schedule: Q01DX005 (ip), vehicle: saline.
The mark [13] stands for this setting: dose: 60.0 mg/kg/injection, schedule: Q01DX005 (ip), vehicle: saline with Tween-80.
The mark [14] stands for this setting: dose: 120.0 mg/kg/injection, schedule: Q01DX005 (ip), vehicle: saline with Tween-80.
[15] abbreviates: dose: 240.0 mg/kg/injection, schedule: Q01DX005 (ip), vehicle: saline with Tween-80.
The mark [16] stands for this setting: dose: 50.0 mg/kg/injection, schedule: Q01DX009 (ip), vehicle: Klucel (hydroxypropylcellulose) (HPC).
Setting [17] is: dose: 100.0 mg/kg/injection, schedule: Q01DX009 (ip), vehicle: Klucel (hydroxypropylcellulose) (HPC).
Setting [18] is: dose: 200.0 mg/kg/injection, schedule: Q01DX009 (ip), vehicle: Klucel (hydroxypropylcellulose) (HPC).
Setting [19] is: dose: 50.0 mg/kg/injection, schedule: Q01DX009 (ip), vehicle: saline with Tween-80.
[20] abbreviates: dose: 60.0 mg/kg/injection, schedule: Q01DX005 (ip), vehicle: Klucel (hydroxypropylcellulose) (HPC).
Setting [21] is: dose: 120.0 mg/kg/injection, schedule: Q01DX005 (ip), vehicle: Klucel (hydroxypropylcellulose) (HPC).
Setting [22] is: dose: 240.0 mg/kg/injection, schedule: Q01DX005 (ip), vehicle: Klucel (hydroxypropylcellulose) (HPC).
Where [23] appears, read: dose: 12.5 mg/kg/injection, schedule: Q01DX009 (ip), vehicle: saline with Tween-80.

The values below come from PubChem BioAssay AID330 (DTP/NCI, 2004).

Where “and” joins values, the source holds several entries; their conditions need not be identical. Identical values can stand only once. Toxic doses and inconclusive results are not listed.

With `NC(=O)/C=C1\NC(=O)CS1`, the T/C is, setting by setting: (dose: 100.0 mg/kg/injection, schedule: Q01DX009 (ip), vehicle: saline sonified) 95 % of control; (dose: 200.0 mg/kg/injection, schedule: Q01DX009 (ip), vehicle: saline sonified) 90 % of control; (dose: 400.0 mg/kg/injection, schedule: Q01DX009 (ip), vehicle: saline sonified) 95 % of control.
Consider `O=C(O)CC(NC(=O)CCl)C(=O)O` (configuration not stated), for which the T/C was 99 % of control and 101 % of control under setting [1]; 100 % of control and 101 % of control under setting [2]; 101 % of control and 92 % of control under setting [3].
In the case of `S=c1n(-c2ccc(Cl)cc2)c2nc3ccccc3nc(/c2=N\Nc2cc(Cl)ccc2Cl)n1-c1ccccn1`, the T/C by setting is: under setting [4], 103 % of control; under setting [5], 100 % of control.
As to `NC(N)=N/N=C/C(Cl)Cl`, the T/C was 109 % of control (dose: 25.0 mg/kg/injection, schedule: Q01DX009 (ip), vehicle: saline); 100 % of control (dose: 25.0 mg/kg/injection, schedule: Q04DX003 (ip), vehicle: saline); 100 % of control under setting [1]; 100 % of control (dose: 50.0 mg/kg/injection, schedule: Q04DX003 (ip), vehicle: saline); 118 % of control under setting [2]; 100 % of control and 95 % of control under setting [6].
On to `O=C1CCCc2[nH]c3ccc(F)cc3c21`, for which the T/C is 91 % of control under setting [4], 90 % of control under setting [5] and 88 % of control under setting [7].
For `CCCSCCCCSCCC`, the T/C is, setting by setting: under setting [8], 100 % of control; under setting [9], 108 % of control.
As to `C=CC(=O)OCCN(CCCC)CCCC`, the T/C under setting [10] was 103 % of control, the T/C under setting [11] is 95 % of control and the T/C under setting [12] is 97 % of control.
Consider `CCN(CC)CCN(CC)CC.O.[Cu+2].[O-][Cl+3]([O-])([O-])O`, for which the T/C reads like this: (dose: 3.12 mg/kg/injection, schedule: Q01DX009 (ip), vehicle: saline) 112 % of control; (dose: 6.25 mg/kg/injection, schedule: Q01DX009 (ip), vehicle: saline) 100 % of control; (dose: 12.5 mg/kg/injection, schedule: Q01DX009 (ip), vehicle: saline) 114 % of control.
As to `Cc1ccc(-c2c([N+](=O)[O-])c3ccccn3c2[N+](=O)[O-])cc1`, the T/C by setting is: under setting [13], 92 % of control; under setting [14], 90 % of control; under setting [15], 99 % of control.
With `COc1cc(/C=C/c2cccs2)oc(=O)c1`, the T/C reads like this: under setting [16], 103 % of control; under setting [17], 103 % of control; under setting [18], 103 % of control.
Take `O=[N+]([O-])Nc1ccccn1`: the T/C was 114 % of control (dose: 100.0 mg/kg/injection, schedule: Q04DX002 (ip), vehicle: saline); 110 % of control (dose: 200.0 mg/kg/injection, schedule: Q04DX002 (ip), vehicle: saline); 97 % of control (dose: 400.0 mg/kg/injection, schedule: Q04DX002 (ip), vehicle: saline).
As for `CCc1cc(CC)c(-c2ccco2)c(COC(=O)NC)c1`, the T/C under setting [19] was 101 % of control, the T/C under setting [8] is 101 % of control and the T/C under setting [9] was 106 % of control.
For the compound `O=C1CCCCCCCCCC/C1=N/O`, the T/C is 99 % of control under setting [19], 89 % of control under setting [8] and 96 % of control under setting [9].
`Cc1cc(=O)oc2cc3c(cc12)CCCN3`: the T/C under setting [20] was 101 % of control, the T/C under setting [21] was 104 % of control and the T/C under setting [22] is 96 % of control.
Take `COc1cc2nc(C)n(C)c(=O)c2cc1OC`: the T/C was 95 % of control under setting [23]; 116 % of control (dose: 25.0 mg/kg/injection, schedule: Q01DX009 (ip), vehicle: saline with Tween-80); 101 % of control under setting [19].
Regarding `CCOC(=O)N1CCNCC1`, the T/C runs as follows: under setting [6], 108 % of control; (dose: 200.0 mg/kg/injection, schedule: Q04DX003 (ip), vehicle: saline) 108 % of control.
As for `O=C1C=CC(=Nc2cccc3c2C(=O)c2ccccc2-3)O1`, the T/C runs as follows: under setting [4], 107 % of control and 115 % of control; under setting [5], 120 % of control and 122 % of control; under setting [7], 122 % of control.
Consider `O=C1NNC(c2ccccc2)C1(Cl)Cl` (configuration not stated), for which the T/C was 101 % of control under setting [23] and 99 % of control under setting [19].
Regarding `O=C1CCC(=O)N1CN1CCCCC1`, the T/C by setting is: (dose: 60.0 mg/kg/injection, schedule: Q01DX005 (ip), vehicle: saline) 93 % of control; (dose: 120.0 mg/kg/injection, schedule: Q01DX005 (ip), vehicle: saline) 113 % of control; (dose: 240.0 mg/kg/injection, schedule: Q01DX005 (ip), vehicle: saline) 118 % of control.
In the case of `CCCCCC(=O)NC(Cc1ccc(N(CCCl)CCCl)cc1)C(=O)O` (configuration not stated), the T/C is, setting by setting: (dose: 1.3 mg/kg/injection, schedule: Q03HX008 (ip), vehicle: saline) 100 % of control; (dose: 1.32 mg/kg/injection, schedule: Q01DX009 (ip), vehicle: saline) 109 % of control; (dose: 2.6 mg/kg/injection, schedule: Q03HX008 (ip), vehicle: saline) 110 % of control; (dose: 2.65 mg/kg/injection, schedule: Q01DX009 (ip), vehicle: saline) 113 % of control; (dose: 5.3 mg/kg/injection, schedule: Q03HX008 (ip), vehicle: saline) 120 % of control; (dose: 21.2 mg/kg/injection, schedule: Q03HX008 (ip), vehicle: saline) 150 % of control.
Take `CN1C(=O)C(Br)(Br)CC1c1cccnc1` (configuration not stated): the T/C is, setting by setting: under setting [20], 101 % of control; under setting [21], 109 % of control; under setting [22], 100 % of control.
Turning to `S=c1n(-c2ccc(Cl)cc2)c2nc3ccccc3nc(/c2=N\Nc2ccc(Br)cc2)n1-c1ccccn1`, under setting [4], the T/C is 101 % of control.
With `COC(=O)CS(=O)(=O)CS(=O)(=O)CC(=O)OC`, the T/C was 107 % of control under setting [1], 100 % of control under setting [2] and 97 % of control under setting [3].
Turning to `O=C(O)C(O)C(O)C(OC1OC(CO)C(O)C(O)C1O)C(O)CO` (configuration not stated), the T/C reads like this: under setting [10], 105 % of control; under setting [11], 101 % of control; under setting [12], 102 % of control.
For the compound `Cc1nc(N(C)C)oc(=O)c1CCc1ccccc1`, the T/C runs as follows: under setting [13], 102 % of control; under setting [14], 102 % of control; under setting [15], 100 % of control.
In the case of `C1N2CN3CN1CN(C2)C3` (tested in a mixture with another compound), the T/C runs as follows: under setting [1], 107 % of control; under setting [2], 101 % of control; under setting [3], 107 % of control.
Take `C/C(=N\N=C(\N)N1CCOCC1)c1ccc2c(c1)Cc1ccccc1-2`: the T/C (dose: 100.0 mg/kg/injection, schedule: Q04DX002 (ip), vehicle: saline with Tween-80) was 101 % of control.
As for `CCCNC(=O)NNC(=O)c1ccc(NC(=O)NCCC)cc1`, the T/C by setting is: under setting [16], 101 % of control; under setting [17], 102 % of control; under setting [18], 89 % of control.
Consider `O=C(Nc1ncnc2nc[nH]c12)NC1CCCCC1`, for which the T/C (dose: 0.75 mg/kg/injection, schedule: Q01DX005 (ip), vehicle: saline) is 106 % of control; the T/C (dose: 1.5 mg/kg/injection, schedule: Q01DX005 (ip), vehicle: saline) is 98 % of control; the T/C (dose: 3.0 mg/kg/injection, schedule: Q01DX005 (ip), vehicle: saline) is 95 % of control; the T/C (dose: 6.25 mg/kg/injection, schedule: Q01DX005 (ip), vehicle: saline with Tween-80) was 89 % of control; the T/C (dose: 12.5 mg/kg/injection, schedule: Q01DX005 (ip), vehicle: saline with Tween-80) was 98 % of control; the T/C (dose: 25.0 mg/kg/injection, schedule: Q01DX005 (ip), vehicle: saline with Tween-80) is 86 % of control. Also, under setting [4], the T/C was 109 % of control.
On to `O=C(O)CSCC(=O)Nc1ccccc1Cl`, for which the T/C reads like this: under setting [13], 95 % of control; under setting [14], 91 % of control; under setting [15], 100 % of control.
